# Source: patent US11795147B2, “Modulators of complex I” (Boehringer Ingelheim International GmbH, priority 2019, dated 2023)
# pIC50: −log10 of the molar value.
# Biological target: Complex I
# Assay: Assay A: Determination of Complex I mediated ROS-inhibition (CI)
# Type: biochemical
# Settings: read-out: CI IC50; ROS generation by Complex I purified from bovine heart, Amplex Red/horse radish peroxidase readout, 8 point concentration-response
row,Compound,pIC50
1,CC(Nc1ccc2c(c1)/C(=C1\COCCN1)C(=O)N2C(C)C)c1ccncc1 (stereo not drawn) [Compound 143],7.10
2,CN(C)c1ccc2c(c1)/C(=C1\CCOCCN1)C(=O)N2C [Compound 41],7.28
3,CN1C(=O)/C(=C2/CCNCCN2)c2cc(N3CCCC3)ccc21 [Compound 40],6.78
4,O=C1/C(=C2/COCCN2)c2cc(NC3CCC3)ccc2N1C1CCOC1 (stereo not drawn) [Compound 14],7.00
5,CC(=O)N1CCC2(CC1)CN/C(=C1\C(=O)N(C(C)C)c3ccc(N4CCCC4)cc31)CO2 [Compound 53],6.63
6,CN1CCC/C1=C1/C(=O)N(C2CCOCC2)c2ccc(NC3CCOC3)cc21 (stereo not drawn) [Compound 49],6.55
7,CC(C)N1C(=O)/C(=C2/COCCN2)c2cc(NC3CCCC3)ccc21 [Compound 94],6.25
8,O=C1/C(=C2/CCOCCN2)c2cc(NC3CCC3)ccc2N1C1CCOCC1 [Compound 120],6.63
9,CC(C)N1C(=O)/C(=C2/CCOCCN2)c2cc(N3CCCC3)ccc21 [Compound 129],6.15
10,CC(C)N1C(=O)C(=C2CCOCC2)c2cc(NC3CCOC3)ccc21 (stereo not drawn) [Compound 160],6.08
11,CN(C)c1ccc2c(c1)/C(=C1\COCCN1)C(=O)N2C [Compound 2],7.10
12,CC(Nc1ccc2c(c1)/C(=C1\COCCN1)C(=O)N2C(C)C)c1ccnn1C (stereo not drawn) [Compound 17],7.66
13,CC(C)N1C(=O)C(=C2CCOCC2)c2cc(NC3CCCC3)ccc21 [Compound 116],6.27
14,Nc1ccc2c(c1)/C(=C1\CCCN1)C(=O)N2C1CCOCC1 [Compound 83],7.96
15,CC(C)C(C)Nc1ccc2c(c1)/C(=C1\COCCN1)C(=O)N2C1COCCOC1 (stereo not drawn) [Compound 27],6.79
16,CC1CCC(C)N1c1ccc2c(c1)/C(=C1\COCCN1)C(=O)N2C (stereo not drawn) [Compound 84],6.48
17,CC(C)N1C(=O)/C(=C2/CCOCCN2)c2cc(NC3CCC3)ccc21 [Compound 22],7.06
18,CC(=O)N1CCN/C(=C2\C(=O)N(C3CCOCC3)c3ccc(N4CCCC4)cc32)CC1 [Compound 12],6.71
19,O=C1/C(=C2/COCCN2)c2cc(NCC3CC3)ccc2N1C1CCOCC1 [Compound 103],7.12
20,CN1C(=O)/C(=C2/CCOCCN2)c2cc(N3CCCC3)ccc21 [Compound 107],6.52
21,O=C1/C(=C2/COCCN2)c2cc(NC3CCOCC3)ccc2N1C1CCOCC1 [Compound 18],7.96
22,CCC(C)Nc1ccc2c(c1)/C(=C1\COCCN1)C(=O)N2C(C)C (stereo not drawn) [Compound 54],6.69

row,Compound,pIC50
1,CC(C)N1C(=O)/C(=C2/COCCN2)c2cc(NCC3(C)COC3)ccc21 [Compound 127],7.09
2,CC(C)N1C(=O)/C(=C2/COCCN2)c2cc(NCc3cc[nH]n3)ccc21 [Compound 74],7.34
3,CN1CCN/C(=C2\C(=O)N(C)c3ccc(N4CCCC4)cc32)CC1 [Compound 64],6.54
4,CC(C)N1C(=O)/C(=C2/COCCN2)c2cc(NC3CCOCC3)ccc21 [Compound 36],6.82
5,O=C1/C(=C2/COCCN2)c2cc(NCC3CCOC3)ccc2N1C1CCOCC1 (stereo not drawn) [Compound 151],6.63
6,CC1CCCC1Nc1ccc2c(c1)/C(=C1\COCCN1)C(=O)N2C(C)C (stereo not drawn) [Compound 124],6.59
7,CC(C)C(C)Nc1ccc2c(c1)/C(=C1\COCCN1)C(=O)N2C1COC1 (stereo not drawn) [Compound 66],6.77
8,O=C1/C(=C2/COCCN2)c2cc(N3CCOCC3)ccc2N1C1CCOCC1 [Compound 4],6.62
9,CCC(C)Nc1ccc2c(c1)/C(=C1\COCCN1)C(=O)N2C1CCOCC1 (stereo not drawn) [Compound 59],6.91
10,CC1CCC(C)N1c1ccc2c(c1)/C(=C1\COCCN1)C(=O)N2C1CCOC1 (stereo not drawn) [Compound 162],6.33
11,CC(Nc1ccc2c(c1)/C(=C1\COCCN1)C(=O)N2C1CCOCC1)C1CC1 (stereo not drawn) [Compound 20],7.14
12,CC(C)Nc1ccc2c(c1)/C(=C1\COCCN1)C(=O)N2C(C)(C)C [Compound 90],6.37
13,CN(C)c1ccc2c(c1)/C(=C1\CCN(C(=O)OCc3ccccc3)CCN1)C(=O)N2C [Compound 108],6.93
14,CC(C)Nc1ccc2c(c1)/C(=C1\COCC(C)N1)C(=O)N2C1CCOCC1 (stereo not drawn) [Compound 33],7.49
15,O=C1/C(=C2/COCCN2)c2cc(N3CCCC3)ccc2N1C1CCOCC1 [Compound 117],6.13
16,CC(C)Nc1ccc2c(c1)/C(=C1\COCCN1)C(=O)N2C1CCOCC1 [Compound 3],7.11
17,CC(C)Nc1ccc2c(c1)/C(=C1\COCCN1)C(=O)N2C(C)C [Compound 44],7.36
18,CC(C)N1C(=O)C(=C2CCOCC2)c2cc(N)ccc21 [Compound 157],6.16
19,CC(C)N1CCC2(CC1)CN/C(=C1\C(=O)N(C(C)C)c3ccc(N4C(C)CCC4C)cc31)CO2 (stereo not drawn) [Compound 139],6.51
20,CC(Nc1ccc2c(c1)/C(=C1\COCCN1)C(=O)N2C(C)C)c1cncnc1 (stereo not drawn) [Compound 126],7.07
21,COCC(C)Nc1ccc2c(c1)/C(=C1\COCCN1)C(=O)N2C1CCOC1 (stereo not drawn) [Compound 52],7.21
22,CC1COC/C(=C2/C(=O)N(C3CCOCC3)c3ccc(N4C(C)CCC4C)cc32)N1 (stereo not drawn) [Compound 93],7.62

row,Compound,pIC50
1,CC(C)N1CCC(Nc2ccc3c(c2)/C(=C2\COCCN2)C(=O)N3C(C)C)CC1 [Compound 96],7.20
2,O=C1/C(=C2/CCN(C3COC3)CCN2)c2cc(N3CCCC3)ccc2N1C1CCOCC1 [Compound 121],7.12
3,CC1CCCC1Nc1ccc2c(c1)/C(=C1\COCCN1)C(=O)N2C1CCOCC1 (stereo not drawn) [Compound 102],6.96
4,COC1COCCC1Nc1ccc2c(c1)/C(=C1\COCCN1)C(=O)N2C1CCOCC1 (stereo not drawn) [Compound 149],6.79
5,CC(C)N1C(=O)/C(=C2/COCCN2)c2cc(NCC(C)(C)C)ccc21 [Compound 145],6.74
6,CC(C)Nc1ccc2c(c1)/C(=C1\COCCN1)C(=O)N2C1COC1 [Compound 135],7.09
7,CC(Nc1ccc2c(c1)/C(=C1\COCCN1)C(=O)N2C1CCOCC1)c1ccccn1 (stereo not drawn) [Compound 77],7.66
8,CC(C)Nc1ccc2c(c1)/C(=C1\COCCN1)C(=O)N2C1CCOC1 (stereo not drawn) [Compound 163],6.76
9,CC1CCC(C)N1c1ccc2c(c1)/C(=C1\COCCN1)C(=O)N2C1CCOCC1 (stereo not drawn) [Compound 156],7.11
10,CN(C)c1ccc2c(c1)/C(=C1\CCCN1)C(=O)N2C1CCOCC1 [Compound 42],7.38
11,CC(Nc1ccc2c(c1)/C(=C1\COCCN1)C(=O)N2C1COC1)C1CC1 (stereo not drawn) [Compound 67],6.65
12,COCC(C)N1C(=O)/C(=C2/COCCN2)c2cc(N3CCC(O)C3)ccc21 (stereo not drawn) [Compound 119],6.37
13,O=C1/C(=C2/COCCN2)c2cc(NC3CCC(F)(F)CC3)ccc2N1C1CCOCC1 [Compound 78],7.05
14,CN1C(=O)/C(=C2/CCN(C3COC3)CCN2)c2cc(N3CCCC3)ccc21 [Compound 45],6.59
15,CC(C)N1C(=O)/C(=C2/COCCN2)c2cc(NCC3CC3)ccc21 [Compound 58],7.00
16,COCC(C)N1C(=O)/C(=C2/COCCN2)c2cc(N3CCCC3)ccc21 (stereo not drawn) [Compound 68],6.20
17,CC(C)N1C(=O)/C(=C2/CCCCN2)c2cc(N(C3CCC3)C3CCC3)ccc21 [Compound 113],6.97
18,CC(C)N1C(=O)C(=C2CCOCC2)c2cc(NC3CCC3)ccc21 [Compound 25],6.15
19,CC(C)N1C(=O)/C(=C2/COCCN2)c2cc(NC(C)C(C)(C)C)ccc21 (stereo not drawn) [Compound 55],6.51
20,CC(C)Nc1ccc2c(c1)/C(=C1\CN(C(C)C)CCN1)C(=O)N2C1CCOCC1 [Compound 46],7.07
21,CC(C)Nc1ccc2c(c1)/C(=C1\COCCN1)C(=O)N2C [Compound 63],7.66
22,CC(Nc1ccc2c(c1)/C(=C1\COCCN1)C(=O)N2C(C)C)c1ccccn1 (stereo not drawn) [Compound 71],7.03

row,Compound,pIC50
1,CNc1ccc2c(c1)/C(=C1\CCCN1)C(=O)N2C1CCOCC1 [Compound 43],7.96
2,CC(C)Nc1ccc2c(c1)/C(=C1\COCCN1)C(=O)N2C1COCCOC1 [Compound 26],7.70
3,CCC(CC)Nc1ccc2c(c1)/C(=C1\COCCN1)C(=O)N2C1CCOCC1 [Compound 76],7.37
4,O=C1/C(=C2/COCCCN2)c2cc(NC3CCOC3)ccc2N1C1CCOCC1 (stereo not drawn) [Compound 141],6.98
5,CC(C)N1C(=O)/C(=C2/COCCN2)c2cc(N3CCCC3)ccc21 [Compound 130],6.06
6,CC(C)N1C(=O)/C(=C2/CCCN2C)c2cc(NC3CCC3)ccc21 [Compound 161],6.02
7,CC(C)Nc1ccc2c(c1)/C(=C1\CCCN1C)C(=O)N2C(C)C [Compound 115],7.10
8,CC(C)Nc1ccc2c(c1)/C(=C1\COC3(CCN(C(C)C)CC3)CN1)C(=O)N2C(C)C [Compound 138],6.69
9,O=C1/C(=C2/COCCN2)c2cc(N3CCCCC3)ccc2N1C1CCOCC1 [Compound 86],7.16
10,CC(C)Nc1ccc2c(c1)/C(=C1\CCN(C(C)C)CCN1)C(=O)N2C1CCOCC1 [Compound 164],6.76
11,O=C1/C(=C2/COCCN2)c2cc(NC3CCOCC3)ccc2N1C1CCOC1 (stereo not drawn) [Compound 32],7.51
12,CN1CCC/C1=C1/C(=O)N(C2CCOCC2)c2ccc(NC3CCC3)cc21 [Compound 9],6.40
13,CC(C)N1CCN/C(=C2\C(=O)N(C)c3ccc(N4CCCC4)cc32)CC1 [Compound 110],6.58
14,CC(C)N1C(=O)/C(=C2/COCCN2)c2cc(N3CCOCC3)ccc21 [Compound 166],7.12
15,CC(C)N1C(=O)/C(=C2/COCCN2)c2cc(NC3CCOCC3F)ccc21 (stereo not drawn) [Compound 73],7.18
16,CN(C)c1ccc2c(c1)/C(=C1/NCCN1c1ccccc1)C(=O)N2C [Compound 106],6.49
17,O=C1/C(=C2/COCCN2)c2cc(NC3COC3)ccc2N1C1CCOCC1 [Compound 175],7.01
18,CC(Nc1ccc2c(c1)/C(=C1\COCCN1)C(=O)N2C(C)C)c1cccnc1 (stereo not drawn) [Compound 15],7.02
19,CC(C)Nc1ccc2c(c1)/C(=C1\COCCCN1)C(=O)N2C1CCOCC1 [Compound 167],7.19
20,CC(C)Nc1ccc2c(c1)/C(=C1\CN(C3COC3)CCN1)C(=O)N2C1CCOCC1 [Compound 5],7.09
21,CC(Nc1ccc2c(c1)/C(=C1\COCCN1)C(=O)N2C1CCOCC1)C1CCC1 (stereo not drawn) [Compound 148],7.41
